In paper PMC2630805, “Anticancer Alkaloid Lamellarins Inhibit Protein Kinases” (Marine Drugs, 2008):

Columns and labels:
DYRK1A = DYRK1A (Rattus norvegicus, UniProt Q63470); assay: DYRK1A kinase assay (myelin basic protein)
Experimental: Blank values were subtracted and activities calculated as pmoles of phosphate incorporated during a 30 min. incubation. The activities were expressed in % of the maximal activity, i.e. in the absence of inhibitors. Controls were performed with appropriate dilutions of dimethylsulfoxide. Unless otherwise stated, the P81 phosphocellulose assay was used.
DYRK1A was expressed as a GST fusion protein in E. coli (vector kindly provided by Dr. W. Becker, Institute for Pharmacology and Toxicology, Aachen, Germany) and affinity purified on glutathione-agarose. […] ATP in a final volume of 30 μl. After 30 min incubation at 30°C, 25 μl aliquots of supernatant were treated as described above.

AMPKα = assay: CEREP Kinase Selectivity Panel; type: biochemical; conditions: 10 μM lamellarin N
RSK2 (h) = RSK2 (h) (Homo sapiens, UniProt P51812); assay: CEREP Kinase Selectivity Panel; type: biochemical; conditions: 10 μM lamellarin N
EphB4 kinase (h) = EphB4 kinase (h) (Homo sapiens, UniProt P54760); assay: CEREP Kinase Selectivity Panel; type: biochemical; conditions: 10 μM lamellarin N
ERK1 (h) = ERK1 (h) (Homo sapiens, UniProt P27361); assay: CEREP Kinase Selectivity Panel; type: biochemical; conditions: 10 μM lamellarin N
CK1 = CK1 kinase assay (CKS peptide); type: biochemical, porcine; conditions: 15 μM ATP; cell '− (x)' = no inhibitory activity detected, x = highest concentration tested
Experimental: CK1 was purified from porcine brain by affinity chromatography on immobilized axin fragment. The mixture of native CK1 isoforms (essentially CK1δ and CK1ɛ) was assayed in three-fold diluted buffer C, using 25 μM CKS peptide, a CK1 selective substrate (RRKHAAIGpSAYSITA, synthesized by Millegen (Labège, France). Assays were performed for 30 min. at 30°C, as described for GSK-3.

CaMK2α (h) = CaMK2α (h) (Homo sapiens, UniProt Q9UQM7); assay: CEREP Kinase Selectivity Panel; type: biochemical; conditions: 10 μM lamellarin N
PKA (h) = PKA (h) (Homo sapiens, UniProt P17612); assay: CEREP Kinase Selectivity Panel; type: biochemical; conditions: 10 μM lamellarin N
IGF1R kinase (h) = IGF1R kinase (h) (Homo sapiens, UniProt P08069); assay: CEREP Kinase Selectivity Panel; type: biochemical; conditions: 10 μM lamellarin N
Abl kinase (h) = Abl kinase (h) (Homo sapiens, UniProt P00519); assay: CEREP Kinase Selectivity Panel; type: biochemical; conditions: 10 μM lamellarin N
PKCγ (h) = PKCγ (h) (Homo sapiens, UniProt P05129); assay: CEREP Kinase Selectivity Panel; type: biochemical; conditions: 10 μM lamellarin N
MAPKAPK2 (h) = MAPKAPK2 (h) (Homo sapiens, UniProt P49137); assay: CEREP Kinase Selectivity Panel; type: biochemical; conditions: 10 μM lamellarin N
Akt1/PKB α (h) = Akt1/PKB α (h) (Homo sapiens, UniProt P31749); assay: CEREP Kinase Selectivity Panel; type: biochemical; conditions: 10 μM lamellarin N
PDK1 (h) = PDK1 (h) (Homo sapiens, UniProt O15530); assay: CEREP Kinase Selectivity Panel; type: biochemical; conditions: 10 μM lamellarin N
Lyn kinase (h) = Lyn kinase (h) (Homo sapiens, UniProt P07948); assay: CEREP Kinase Selectivity Panel; type: biochemical; conditions: 10 μM lamellarin N
CSK (h) = CSK (h) (Homo sapiens, UniProt P41240); assay: CEREP Kinase Selectivity Panel; type: biochemical; conditions: 10 μM lamellarin N
BMX kinase (h) (Etk) = BMX kinase (h) (Etk) (Homo sapiens, UniProt P51813); assay: CEREP Kinase Selectivity Panel; type: biochemical; conditions: 10 μM lamellarin N
Fyn kinase (h) = Fyn kinase (h) (Homo sapiens, UniProt P06241); assay: CEREP Kinase Selectivity Panel; type: biochemical; conditions: 10 μM lamellarin N
IRK (h) (InsR) = IRK (h) (InsR) (Homo sapiens, UniProt P06213); assay: CEREP Kinase Selectivity Panel; type: biochemical; conditions: 10 μM lamellarin N
TRKA (h) = TRKA (h) (Homo sapiens, UniProt P04629); assay: CEREP Kinase Selectivity Panel; type: biochemical; conditions: 10 μM lamellarin N
[1] = tested on: human neuroblastoma SH-SY5Y cells; assay: SH-SY5Y cell survival, MTS reduction assay; type: cell-based; conditions: read-out: IC50 SH-SY5Y cell survival
Experimental: We next tested the effects of each lamellarin, at an initial 10 μM concentration, on the survival of the neuroblastoma SH-SY5Y cell line after 48 h exposure (Table 2). Cell survival was estimated by the MTS reduction assay.
SH-SY5Y human neuroblastoma cells were grown in DMEM supplemented with 2mM L-glutamine (Invitrogen, Cergy Pontoise, France), plus antibiotics (penicillin-streptomycin) and a 10% volume of fetal calf serum (FCS) (Invitrogen). Cell viability was determined by means of the MTS (3- (4,5-dimethylthiazol-2-yl)-5- (3-carboxymethoxyphenyl)-2- (4-sulfophenyl)-2H -tetrazolium) reduction method as previously described. Cell death was (also) assayed by LDH release. Lactate dehydrogenase is a stable cytosolic enzyme that is released upon cell lysis. SH-SY5Y cells were also subjected to caspase activity assays. These are based on cleavage of a synthetic caspase substrate DEVD (MP Biomedicals, 199423), a subtrate of active caspase 3/6/7. The assay was carried out according to manufacturer’s instructions.

Ret kinase (h) = Ret kinase (h) (Homo sapiens, UniProt P07949); assay: CEREP Kinase Selectivity Panel; type: biochemical; conditions: 10 μM lamellarin N
[2] = tested on: CDK1/cyclin B, CDK5/p25, GSK-3α/ß, PIM-1, DYRK1A, CK1; assay: Kinase assay panel, structure/activity comparison; type: biochemical; conditions: transposition of substitutions at R3 and R4 of lamellarin D
Experimental: All compounds were run on our kinase assay panel comprising CDK1/cyclin B, CDK5/p25, GSK-3α/ß, PIM-1, DYRK1A, CK1.
Kinase activities were assayed in buffer A (10 mM MgCl2, 1 mM EGTA, 1 mM DTT, 25 mM Tris-HCl pH 7.5, 50 μg heparin/ml) or C (60 mM β-glycerophosphate, 15 mM p-nitrophenyl phosphate, 25 mM MOPS (pH 7.2), 5 mM EGTA, 15 mM MgCl2, 1 mM dithiothreitol, 1 mM sodium vanadate, 1 mM phenylphosphate, 0.1 % Nonidet P-40), at 30°C, at a final ATP concentration of 15 μM. Blank values were subtracted and activities calculated as pmoles of phosphate incorporated during a 30 min. incubation. The activities were expressed in % of the maximal activity, i.e. in the absence of inhibitors. Controls were performed with appropriate dilutions of dimethylsulfoxide. Unless otherwise stated, the P81 phosphocellulose assay was used.

[3] = target: FLT-1 kinase (h) (VEGFR1) (Homo sapiens, UniProt P17948); assay: CEREP Kinase Selectivity Panel; type: biochemical; conditions: 10 μM lamellarin N

Fyn kinase (h), sequence (P06241 whole entry): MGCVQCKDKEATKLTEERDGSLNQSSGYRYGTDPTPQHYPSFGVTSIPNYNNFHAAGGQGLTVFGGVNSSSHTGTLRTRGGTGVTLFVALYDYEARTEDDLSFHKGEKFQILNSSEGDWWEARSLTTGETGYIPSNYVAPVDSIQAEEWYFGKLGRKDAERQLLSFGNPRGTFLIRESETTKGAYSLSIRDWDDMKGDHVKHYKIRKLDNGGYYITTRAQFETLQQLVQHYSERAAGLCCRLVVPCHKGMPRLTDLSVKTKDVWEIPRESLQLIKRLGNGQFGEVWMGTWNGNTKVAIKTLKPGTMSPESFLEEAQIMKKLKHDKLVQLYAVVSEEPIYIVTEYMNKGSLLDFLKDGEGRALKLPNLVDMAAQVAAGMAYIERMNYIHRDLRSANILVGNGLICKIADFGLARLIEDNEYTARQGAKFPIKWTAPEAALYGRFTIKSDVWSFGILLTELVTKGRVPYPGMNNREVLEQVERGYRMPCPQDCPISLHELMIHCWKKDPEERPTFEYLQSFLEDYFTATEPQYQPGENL
Lyn kinase (h), sequence (P07948 whole entry): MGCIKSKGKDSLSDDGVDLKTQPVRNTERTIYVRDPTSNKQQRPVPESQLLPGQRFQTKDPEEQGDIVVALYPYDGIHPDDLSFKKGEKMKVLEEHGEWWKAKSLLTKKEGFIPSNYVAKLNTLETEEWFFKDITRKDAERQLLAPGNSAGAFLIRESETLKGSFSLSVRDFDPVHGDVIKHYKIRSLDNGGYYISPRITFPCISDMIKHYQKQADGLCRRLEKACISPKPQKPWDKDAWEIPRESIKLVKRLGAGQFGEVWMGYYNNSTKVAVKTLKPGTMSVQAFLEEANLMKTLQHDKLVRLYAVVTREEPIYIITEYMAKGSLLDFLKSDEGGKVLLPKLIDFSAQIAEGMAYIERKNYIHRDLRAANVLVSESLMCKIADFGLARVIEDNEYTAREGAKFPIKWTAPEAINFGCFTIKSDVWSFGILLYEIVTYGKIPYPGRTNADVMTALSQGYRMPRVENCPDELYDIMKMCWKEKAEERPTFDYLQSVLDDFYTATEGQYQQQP
TRKA (h), sequence (P04629 33-796): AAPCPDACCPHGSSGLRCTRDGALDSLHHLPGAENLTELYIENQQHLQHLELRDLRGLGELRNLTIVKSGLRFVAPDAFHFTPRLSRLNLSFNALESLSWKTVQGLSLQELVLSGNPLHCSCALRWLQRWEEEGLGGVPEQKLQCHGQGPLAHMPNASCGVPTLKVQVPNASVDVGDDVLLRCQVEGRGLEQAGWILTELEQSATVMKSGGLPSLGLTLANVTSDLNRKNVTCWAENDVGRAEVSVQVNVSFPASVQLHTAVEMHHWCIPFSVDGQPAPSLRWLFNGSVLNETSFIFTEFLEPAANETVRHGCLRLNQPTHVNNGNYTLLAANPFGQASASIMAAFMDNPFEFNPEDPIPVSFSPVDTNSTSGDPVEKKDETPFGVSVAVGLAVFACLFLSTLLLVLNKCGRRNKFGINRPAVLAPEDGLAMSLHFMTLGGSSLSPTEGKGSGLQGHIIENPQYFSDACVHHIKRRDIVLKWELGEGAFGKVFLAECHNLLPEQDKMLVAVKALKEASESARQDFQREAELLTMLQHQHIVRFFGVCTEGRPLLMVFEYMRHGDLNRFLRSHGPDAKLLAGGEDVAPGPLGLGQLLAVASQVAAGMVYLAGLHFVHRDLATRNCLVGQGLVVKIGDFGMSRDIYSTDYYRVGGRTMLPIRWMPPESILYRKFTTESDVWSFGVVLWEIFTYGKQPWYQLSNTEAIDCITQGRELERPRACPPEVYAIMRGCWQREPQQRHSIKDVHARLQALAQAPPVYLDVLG
EphB4 kinase (h), sequence (P54760 16-987): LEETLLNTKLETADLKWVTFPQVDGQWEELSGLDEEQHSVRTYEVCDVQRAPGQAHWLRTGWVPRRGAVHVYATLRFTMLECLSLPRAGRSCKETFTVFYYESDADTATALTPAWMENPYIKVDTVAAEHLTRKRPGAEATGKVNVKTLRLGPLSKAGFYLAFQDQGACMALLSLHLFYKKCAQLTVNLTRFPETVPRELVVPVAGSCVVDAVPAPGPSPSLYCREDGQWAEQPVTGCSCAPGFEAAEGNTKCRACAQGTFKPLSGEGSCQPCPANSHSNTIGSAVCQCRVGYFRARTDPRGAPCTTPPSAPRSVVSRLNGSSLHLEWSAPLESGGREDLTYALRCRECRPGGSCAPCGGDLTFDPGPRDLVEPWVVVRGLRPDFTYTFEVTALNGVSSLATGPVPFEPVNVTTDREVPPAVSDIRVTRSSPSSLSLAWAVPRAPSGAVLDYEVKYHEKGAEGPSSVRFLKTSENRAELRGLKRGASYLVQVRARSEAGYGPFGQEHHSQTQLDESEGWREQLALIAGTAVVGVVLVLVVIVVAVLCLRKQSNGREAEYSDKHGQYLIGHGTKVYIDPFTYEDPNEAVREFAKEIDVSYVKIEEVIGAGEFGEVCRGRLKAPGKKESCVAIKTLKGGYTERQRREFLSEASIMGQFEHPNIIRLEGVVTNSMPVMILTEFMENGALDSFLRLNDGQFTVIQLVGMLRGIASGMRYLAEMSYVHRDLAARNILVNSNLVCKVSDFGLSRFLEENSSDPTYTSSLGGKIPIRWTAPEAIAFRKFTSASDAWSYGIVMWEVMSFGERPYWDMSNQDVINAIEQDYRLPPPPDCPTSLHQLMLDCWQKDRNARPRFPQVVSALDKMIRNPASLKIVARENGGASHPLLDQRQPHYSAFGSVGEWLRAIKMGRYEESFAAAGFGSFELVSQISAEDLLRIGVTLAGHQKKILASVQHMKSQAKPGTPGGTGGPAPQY
RSK2 (h), sequence (P51812 whole entry): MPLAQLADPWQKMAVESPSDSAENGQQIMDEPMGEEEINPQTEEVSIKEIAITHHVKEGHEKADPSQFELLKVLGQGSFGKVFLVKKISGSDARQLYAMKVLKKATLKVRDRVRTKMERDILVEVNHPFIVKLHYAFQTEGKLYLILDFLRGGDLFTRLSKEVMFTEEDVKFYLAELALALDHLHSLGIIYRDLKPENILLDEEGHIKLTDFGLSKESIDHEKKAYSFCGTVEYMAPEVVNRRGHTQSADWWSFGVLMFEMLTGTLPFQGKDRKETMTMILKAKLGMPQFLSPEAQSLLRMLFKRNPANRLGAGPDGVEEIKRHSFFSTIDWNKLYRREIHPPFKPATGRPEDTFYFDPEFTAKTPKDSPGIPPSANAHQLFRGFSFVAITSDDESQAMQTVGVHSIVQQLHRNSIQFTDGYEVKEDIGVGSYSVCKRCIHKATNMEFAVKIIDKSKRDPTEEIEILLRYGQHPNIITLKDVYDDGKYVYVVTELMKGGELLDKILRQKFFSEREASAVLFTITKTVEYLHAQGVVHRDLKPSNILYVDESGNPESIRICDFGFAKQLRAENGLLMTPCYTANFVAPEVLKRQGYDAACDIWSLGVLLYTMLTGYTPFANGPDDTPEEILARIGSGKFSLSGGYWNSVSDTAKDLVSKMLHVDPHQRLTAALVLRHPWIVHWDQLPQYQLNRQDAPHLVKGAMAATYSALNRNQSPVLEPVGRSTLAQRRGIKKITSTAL
BMX kinase (h) (Etk), sequence (P51813 whole entry): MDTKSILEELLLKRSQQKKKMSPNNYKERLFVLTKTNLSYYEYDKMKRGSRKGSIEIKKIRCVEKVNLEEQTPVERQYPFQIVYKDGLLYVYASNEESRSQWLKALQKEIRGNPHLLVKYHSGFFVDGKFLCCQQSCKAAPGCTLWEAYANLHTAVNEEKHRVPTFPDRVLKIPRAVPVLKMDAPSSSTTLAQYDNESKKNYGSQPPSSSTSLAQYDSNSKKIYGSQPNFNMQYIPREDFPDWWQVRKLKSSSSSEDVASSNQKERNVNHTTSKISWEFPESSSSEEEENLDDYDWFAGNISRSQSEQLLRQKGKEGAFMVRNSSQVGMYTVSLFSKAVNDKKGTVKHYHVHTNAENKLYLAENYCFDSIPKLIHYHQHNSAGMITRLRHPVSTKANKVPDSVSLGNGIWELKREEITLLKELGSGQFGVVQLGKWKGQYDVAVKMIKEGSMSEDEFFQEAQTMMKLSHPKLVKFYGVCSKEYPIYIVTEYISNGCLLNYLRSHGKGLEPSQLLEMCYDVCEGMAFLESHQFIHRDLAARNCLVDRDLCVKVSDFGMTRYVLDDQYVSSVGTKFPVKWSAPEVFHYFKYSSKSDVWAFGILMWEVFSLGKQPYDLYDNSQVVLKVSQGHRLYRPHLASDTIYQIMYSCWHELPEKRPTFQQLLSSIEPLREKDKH
ERK1 (h), sequence (P27361 whole entry): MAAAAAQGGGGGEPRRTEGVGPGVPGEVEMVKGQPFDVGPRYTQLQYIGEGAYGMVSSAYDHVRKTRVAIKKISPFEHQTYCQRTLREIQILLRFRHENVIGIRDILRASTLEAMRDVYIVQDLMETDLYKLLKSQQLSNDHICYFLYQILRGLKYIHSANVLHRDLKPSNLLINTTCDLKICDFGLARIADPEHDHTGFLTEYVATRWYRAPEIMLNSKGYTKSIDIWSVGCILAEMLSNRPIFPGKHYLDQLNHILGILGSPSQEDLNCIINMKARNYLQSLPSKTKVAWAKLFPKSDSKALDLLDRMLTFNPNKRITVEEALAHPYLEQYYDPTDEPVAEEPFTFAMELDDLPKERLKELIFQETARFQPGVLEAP
CSK (h), sequence (P41240 whole entry): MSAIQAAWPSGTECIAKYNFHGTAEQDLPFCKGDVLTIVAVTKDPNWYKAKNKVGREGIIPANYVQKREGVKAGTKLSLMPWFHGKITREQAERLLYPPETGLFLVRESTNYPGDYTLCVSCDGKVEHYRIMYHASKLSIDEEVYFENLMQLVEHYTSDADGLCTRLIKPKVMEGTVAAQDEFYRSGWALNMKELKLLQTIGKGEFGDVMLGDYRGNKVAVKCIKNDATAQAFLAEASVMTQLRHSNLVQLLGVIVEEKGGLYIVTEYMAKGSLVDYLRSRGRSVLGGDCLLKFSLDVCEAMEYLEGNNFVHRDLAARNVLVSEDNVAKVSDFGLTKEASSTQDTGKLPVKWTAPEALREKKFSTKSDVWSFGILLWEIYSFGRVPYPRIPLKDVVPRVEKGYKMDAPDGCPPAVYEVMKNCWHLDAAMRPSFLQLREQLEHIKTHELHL

Compound: COc1ccc(-c2c3c4cc(OC)c(O)cc4oc(=O)c3n3ccc4cc(O)c(OC)cc4c23)cc1O [Compound 6, lamellarin N]
- IC50 (DYRK1A): 35 nM
- Activity (% of control) (AMPKα): 42.4 % of control
- Activity (% of control) (RSK2 (h)): 44.5 % of control
- Activity (% of control) (EphB4 kinase (h)): 89.7 % of control
- Activity (% of control) (ERK1 (h)): 94.1 % of control
- IC50 (CK1): > 10000 nM
- Activity (% of control) (CaMK2α (h)): 38.2 % of control
- Activity (% of control) (PKA (h)): 80.0 % of control
- Activity (% of control) (IGF1R kinase (h)): 87.2 % of control
- Activity (% of control) (Abl kinase (h)): 61.4 % of control
- Activity (% of control) (PKCγ (h)): 94.1 % of control
- Activity (% of control) (MAPKAPK2 (h)): 96.6 % of control
- Activity (% of control) (Akt1/PKB α (h)): 104.6 % of control
- Activity (% of control) (PDK1 (h)): 89.8 % of control
- Activity (% of control) (Lyn kinase (h)): 7.2 % of control
- Activity (% of control) (CSK (h)): 47.4 % of control
- Activity (% of control) (BMX kinase (h) (Etk)): 60.8 % of control
- Activity (% of control) (Fyn kinase (h)): 20.1 % of control
- Activity (% of control) (IRK (h) (InsR)): 46.7 % of control
- Activity (% of control) (TRKA (h)): 0.8 % of control
- IC50 [1]: 25 nM
- Activity (% of control) (Ret kinase (h)): 1.8 % of control
- enhancement of kinase inhibitory activity relative to lamellarin D [2]: 10 fold
- Activity (% of control) [3]: 4.0 % of control
